US20210077500A1, “PIKFYVE INHIBITORS FOR CANCER THERAPY” (Al Therapeutics, Inc., priority 2019, published 2021)
pIC50: −log10 of the molar value. Like-named read-outs stand apart in the source and are kept apart here.

Columns and labels:
EBC-1 = assay: 5-day viability assay, single agent and combination (Chou-Talalay CI); settings: Homo sapiens, EBC-1, 120 h
Experimental: (§1) For assessment of synergistic activity, cells of each cell line were seeded at optimal density for growth onto different 96-well plates and placed into a humidified incubator (37° C., 5% CO2) to adhere overnight. The following day, the cells on each plate were treated either with a single agent (a PIKfyve inhibitor, e.g., apilimod, or a RAS pathway inhibitor) or with a combination of the two agents. Cells were treated for 120 hours and then assayed for cell viability using CellTiter-Glo™ (Promega).
(§2) Using this method, a CI value is calculated based on the effects of each drug alone on cell viability (single agent treatment) and the effects of each drug combination, across all combinations of both agents tested. The single agent treatments consisted of 8 different concentrations of each single agent, obtained by serial dilution. The concentrations were chosen to provide a range above and below the IC50 value of the single agent (if achieved) in a given cell line.
(§3) D1 alone and D2 alone were estimated from Hill's equation:
(§4) Here, we utilized cells harboring MET pathway activation, particularly the EBC-1, MKN45 and Caki-1 cell lines. In addition to MET inhibitors, since MET activates the RAS pathway, we also assayed for synergistic activity with inhibitors of the RAS pathway in these cells.

MKN45 = assay: as above; settings: Homo sapiens, MKN-45, 120 h
Experimental: as §1, §2, §3, §4

RKO cells = assay: CellTiter-Glo cell viability, single agent and combination (Chou-Talalay CI); settings: Homo sapiens; for pIC50: 120 h, read-out: IC50 (single agent), RKO (colorectal, BRAF V600E), 120 h, average of two independent experiments
Experimental: as §1, §2
In each experiment for a given cell line, the combination treatments consisted of 8×8 or 64 different combination treatments.
Using this method, combinations with CI values>1 are considered antagonistic, CI values=1 are considered additive, and CI values<1 are considered synergistic.

GP5d = assay: as above; assay type: cell-based; settings: Homo sapiens, 120 h, GP5d (colorectal, KRAS G12D), average of two independent experiments
Experimental: as §1, §2, §3

A549 = assay: as above; settings: Homo sapiens, A549, 120 h, read-out: IC50 (single agent)
Experimental: (§5) For assessment of synergistic activity, cells of each cell line were seeded at optimal density for growth onto different 96-well plates and placed into a humidified incubator (37° C., 5% CO2) to adhere overnight. […] Cells were treated for 120 hours and then assayed for cell viability using CellTiter-Glo™ (Promega).
as §2

Caki-1 = assay: 5-day viability assay, single agent and combination (Chou-Talalay CI); settings: Homo sapiens, CAKI-1, 120 h
Experimental: as §1, §2, §3, §4

HCT-15 = assay: CellTiter-Glo cell viability, single agent and combination (Chou-Talalay CI); assay type: cell-based; settings: Homo sapiens, HCT-15, 120 h, HCT-15 (colorectal, KRAS G13D), average of two independent experiments
Experimental: as §1, §2, §3

HT-29 = assay: as above; assay type: cell-based; settings: Homo sapiens, HT-29, 120 h, HT-29 (colorectal, BRAF V600E), average of two independent experiments
Experimental: as §1, §2, §3

LS411N = assay: as above; assay type: cell-based; settings: 120 h, LS411N (colorectal, BRAF V600E), average of two independent experiments
Experimental: as §1, §2, §3

A375 = assay: as above; settings: Homo sapiens, A-375, 120 h, read-out: IC50 (single agent)
Experimental: as §5, §2

NCI-H1792 = assay: as above; settings: Homo sapiens, NCI-H1792, 120 h, read-out: IC50 (single agent)
Experimental: as §5, §2

NCI-H820 = assay: 5-day viability assay; assay type: cell-based; settings: 120 h, NCI-H820 (NSCLC, MET AMP), two independent experiments
A427 = assay: CellTiter-Glo cell viability, single agent and combination (Chou-Talalay CI); settings: Homo sapiens, A-427, 120 h, read-out: IC50 (single agent)
Experimental: as §5, §2

HCT116 = assay: 5-day CellTiter-Glo viability sensitivity screen; assay type: cell-based; settings: Homo sapiens, HCT-116, 120 h; HCT116 colorectal (KRAS p.G13D); 5-day viability assays; read-out: IC50 (sensitive/resistant cut-off)
SNU-5 = assay: 5-day viability assay; assay type: cell-based; settings: Homo sapiens, 120 h, SNU-5 (gastric, MET AMP), two independent experiments
NCI-H2023 = assay: 5-day viability assay; assay type: cell-based; settings: 120 h, NCI-H2023 (NSCLC, Autocrine), two independent experiments
NCI-H596 = assay: 5-day viability assay; assay type: cell-based; settings: Homo sapiens, 120 h, NCI-H596 (NSCLC, MET Exon 14), two independent experiments
SW620 = assay: 5-day CellTiter-Glo viability sensitivity screen; assay type: cell-based; settings: Homo sapiens, SW-620, 120 h; SW620 colorectal (KRAS p.G12V); 5-day viability assays; read-out: IC50 (sensitive/resistant cut-off)
[1] = test system: cell lines harboring MET pathway activation; assay: 5-day viability assay, share of sensitive cell lines; assay type: cell-based; settings: 6/10 cell lines
Hs746T = assay: 5-day viability assay; assay type: cell-based; settings: Homo sapiens, 120 h, Hs746T (gastric, AMP, Exon 14), two independent experiments
COLO-205 = assay: 5-day CellTiter-Glo viability sensitivity screen; assay type: cell-based; settings: Homo sapiens, 120 h; COLO-205 colorectal; 5-day viability assays; read-out: IC50 (sensitive/resistant cut-off)
COLO-741 = assay: 5-day CellTiter-Glo viability sensitivity screen; assay type: cell-based; settings: Homo sapiens, 120 h; COLO-741 colorectal; 5-day viability assays; read-out: IC50 (sensitive/resistant cut-off)
DLD1 = assay: 5-day CellTiter-Glo viability sensitivity screen; assay type: cell-based; settings: Homo sapiens, DLD-1, 120 h; DLD1 colorectal (KRAS p.G13D); 5-day viability assays; read-out: IC50 (sensitive/resistant cut-off)
SW480 = assay: 5-day CellTiter-Glo viability sensitivity screen; assay type: cell-based; settings: Homo sapiens, 120 h; SW480 colorectal (KRAS p.G12V); 5-day viability assays; read-out: IC50 (sensitive/resistant cut-off)
NCI-H1993 = assay: 5-day viability assay; assay type: cell-based; settings: Homo sapiens, 120 h, NCI-H1993 (NSCLC, MET AMP), two independent experiments
SW1417 = assay: 5-day CellTiter-Glo viability sensitivity screen; assay type: cell-based; settings: Homo sapiens, 120 h; SW1417 colorectal; 5-day viability assays; read-out: IC50 (sensitive/resistant cut-off)
[2] = test system: colorectal cancer cell lines; assay: Sensitivity screen, share of sensitive cell lines; assay type: cell-based; settings: nine out of 14 cell lines; 5-day CellTiter-Glo viability
SW1116 = assay: 5-day CellTiter-Glo viability sensitivity screen; assay type: cell-based; settings: Homo sapiens, SW 1116, 120 h; SW1116 colorectal (KRAS p.G12A); 5-day viability assays; read-out: IC50 (sensitive/resistant cut-off)
NCI-H1944 = assay: CellTiter-Glo cell viability, single agent and combination (Chou-Talalay CI); settings: Homo sapiens, NCI-H1944, 120 h, read-out: IC50 (single agent)
Experimental: as §5, §2

MDST8 = assay: 5-day CellTiter-Glo viability sensitivity screen; assay type: cell-based; settings: 120 h; MDST8 colorectal; 5-day viability assays; read-out: IC50 (sensitive/resistant cut-off)
SBC-5 = assay: 5-day viability assay; assay type: cell-based; settings: Homo sapiens, 120 h, SBC-5 (SCLC, MET AMP), two independent experiments
NCI-H2122 = assay: CellTiter-Glo cell viability, single agent and combination (Chou-Talalay CI); settings: Homo sapiens, NCI-H2122, 120 h, read-out: IC50 (single agent)
Experimental: as §5, §2

BxPC3 = assay: CellTiter-Glo cell viability, single agent; assay type: cell-based; settings: Homo sapiens, BXPC-3; BxPC3 (pancreatic, BRAF delV487-P492); 120 h; average of two independent experiments
Experimental: The cell lines used in this study were derived from lung cancers, colorectal cancers, pancreatic cancer and melanoma, as shown in Table 2 below.
as §5

NCI-H2030 = assay: CellTiter-Glo cell viability, single agent and combination (Chou-Talalay CI); settings: Homo sapiens, NCI-H2030, 120 h, read-out: IC50 (single agent)
Experimental: as §5, §2

[3] = read-out: IC50 (single agent), EBC-1, 120 h, average of two independent experiments
[4] = read-out: IC50 (single agent), MKN45, 120 h, average of two independent experiments
[5] = read-out: Viability (normalized)

COCCOc1cnc2ccn([C@H](C)c3nnc4c(F)cc(-c5cnn(C)c5)cn34)c(=O)c2c1 [AMG 337]
pIC50 (EBC-1; [3]): 8.40 | pIC50 (MKN45; [4]): 8.15

Cc1cccc(/C=N/Nc2cc(N3CCOCC3)n3nc(-c4ccncc4)cc3n2)c1 [APY-0201]
pIC50 (EBC-1; [3]): 6.77 | pIC50 (MKN45; [4]): 6.57

CC(C)Nc1cc(-c2c[nH]c(C(=O)N[C@H](CO)c3cccc(Cl)c3)c2)c(Cl)cn1 [BVD-523]
pIC50 (EBC-1; [3]): 6.06 | pIC50 (RKO cells): 6.02 | pIC50 (MKN45; [4]): 6.36

Cn1cnc2c(F)c(Nc3ccc(Br)cc3F)c(C(=O)NOCCO)cc21 [Binimetinib, binimetinib]
pIC50 (EBC-1; [3]): 7.12 | pIC50 (GP5d): < 5.30 | pIC50 (MKN45; [4]): 6.27

COc1cc2nccc(Oc3ccc(NC(=O)C4(C(=O)Nc5ccc(F)cc5)CC4)cc3)c2cc1OC [Cabozantinib, cabozantinib]
pIC50 (EBC-1; [3]): 7.55 | pIC50 (MKN45; [4]): 7.17

CNC(=O)c1ccc(-c2cnc3ncc(Cc4ccc5ncccc5c4)n3n2)cc1F [Capmatinib, capmatinib]
pIC50 (EBC-1; [3]): 9.15 | pIC50 (MKN45; [4]): 8.82

O=C(c1ccc(F)c(F)c1Nc1ccc(I)cc1F)N1CC(O)([C@@H]2CCCCN2)C1 [Cobimetinib, cobimetinib]
pIC50 (EBC-1; [3]): 6.87 | pIC50 (A549): 6.39 | pIC50 (Caki-1; read-out: IC50 (single agent)): < 5.30 | pIC50 (GP5d): < 5.30 | pIC50 (MKN45; [4]): 6.71

C[C@@H](Oc1cc(-c2cnn(C3CCNCC3)c2)cnc1N)c1c(Cl)ccc(F)c1Cl [Crizotinib, crizotinib]
pIC50 (EBC-1; [3]): 8.00 | pIC50 (MKN45; [4]): 7.89

Cn1nccc1Nc1nccc(-c2ccn([C@H](CO)c3ccc(Cl)c(F)c3)c(=O)c2)n1 [GDC-0994]
pIC50 (EBC-1; [3]): 5.38 | pIC50 (MKN45; [4]): 5.27

CNC(=O)c1cc(Oc2ccc(NC(=O)Nc3ccc(Cl)c(C(F)(F)F)c3)c(F)c2)ccn1 [Regorafenib, regorafenib]
pIC50 (HCT-15): 5.15 | pIC50 (RKO cells): 5.31 | pIC50 (HT-29): 5.19 | pIC50 (A549): 5.20 | pIC50 (Caki-1; read-out: IC50 (single agent)): 5.23

C[C@@H](c1ccc2nccn2c1)n1nnc2ncc(-c3cnn(C)c3)nc21 [Savolitinib, savolitinib]
pIC50 (EBC-1; [3]): 8.82 | pIC50 (MKN45; [4]): 8.52

Cn1cnc2c(F)c(Nc3ccc(Br)cc3Cl)c(C(=O)NOCCO)cc21 [Selumetinib, selumetinib]
pIC50 (EBC-1; [3]): 6.80 | pIC50 (LS411N; Homo sapiens, LS-411N): 7.34 | pIC50 (RKO cells): 5.46 | viability at 0.078 µM (RKO cells; [5]): 78% | viability at 0.125 µM (RKO cells; [5]): 78% | viability at 0.313 µM (RKO cells; [5]): 71% | viability at 0.625 µM (RKO cells; [5]): 74% | viability at 1.25 µM (RKO cells; [5]): 64% | viability at 2.5 µM (RKO cells; [5]): 53% | viability at 5 µM (RKO cells; [5]): 46% | viability at 100 µM (RKO cells; [5]): 32% | pIC50 (MKN45; [4]): 5.96

CN1CCC(COc2cnc(-c3cccc(Cn4nc(-c5cccc(C#N)c5)ccc4=O)c3)nc2)CC1 [Tepotinib, tepotinib]
pIC50 (EBC-1; [3]): 7.89 | pIC50 (MKN45; [4]): 7.80

CC(=O)Nc1cccc(-n2c(=O)n(C3CC3)c(=O)c3c(Nc4ccc(I)cc4F)n(C)c(=O)c(C)c32)c1 [Trametinib, trametinib]
pIC50 (EBC-1; [3]): 8.00 | pIC50 (LS411N; Homo sapiens, LS-411N): 9.00 | pIC50 (A375): 8.70 | pIC50 (RKO cells): 7.49 | pIC50 (NCI-H1792): 7.48 | pIC50 (HT-29): 8.52 | pIC50 (A549): 7.77 | pIC50 (Caki-1; read-out: IC50 (single agent)): 7.33 | pIC50 (GP5d): < 5.30 | pIC50 (MKN45; [4]): 7.74

CCCS(=O)(=O)Nc1ccc(F)c(C(=O)c2c[nH]c3ncc(-c4ccc(Cl)cc4)cc23)c1F [Vemurafenib, vemurafenib]
pIC50 (HCT-15): < 5.00 | pIC50 (LS411N; Homo sapiens, LS-411N): 6.46 | pIC50 (RKO cells): 5.15 | pIC50 (HT-29): 5.61

Cc1cccc(/C=N/Nc2cc(N3CCOCC3)nc(OCCc3ccccn3)n2)c1 [apilimod]
pIC50 (EBC-1; read-out: Average IC50, EBC-1 (NSCLC, MET AMP), 5-day viability assay, two independent experiments): 6.95 | pIC50 (NCI-H820): 6.99 | pIC50 (A427): 7.10 | pIC50 (HCT116): > 6.70 | pIC50 (SNU-5): 6.06 | pIC50 (NCI-H2023): 7.14 | pIC50 (LS411N): 7.05 | pIC50 (NCI-H596): 6.52 | pIC50 (SW620): > 6.70 | cell lines harboring MET pathway activation sensitive to apilimod (IC50 less than 200 nM) [1]: 60% | pIC50 (Hs746T): 6.97 | pIC50 (COLO-205): > 6.70 | pIC50 (A375): 6.98 | pIC50 (RKO cells): < 6.70 | viability at 0.023 µM (RKO cells; [5]): 98% | viability at 0.035 µM (RKO cells; [5]): 93% | viability at 0.053 µM (RKO cells; [5]): 96% | viability at 0.079 µM (RKO cells; [5]): 93% | viability at 0.119 µM (RKO cells; [5]): 97% | viability at 0.178 µM (RKO cells; [5]): 70% | viability at 0.267 µM (RKO cells; [5]): 53% | viability at 0.4 µM (RKO cells; [5]): 44% | pIC50 (COLO-741): < 6.70 | pIC50 (DLD1): > 6.70 | pIC50 (SW480): > 6.70 | pIC50 (NCI-H1993): 6.06 | pIC50 (NCI-H1792): < 6.40 | pIC50 (SW1417): < 6.70 | colorectal cancer cell lines sensitive to apilimod (average IC50 less than 200 nM) [2]: 64% | pIC50 (SW1116): > 6.70 | pIC50 (NCI-H1944): 7.44 | pIC50 (MDST8): < 6.70 | pIC50 (SBC-5): 6.97 | pIC50 (A549): 7.31 | pIC50 (NCI-H2122): < 6.40 | pIC50 (Caki-1; read-out: Average IC50): 6.43 | pIC50 (GP5d): 6.68 | pIC50 (BxPC3): < 6.40 | pIC50 (NCI-H2030): 6.64 | pIC50 (MKN45; read-out: Average IC50, MKN45 (gastric, MET AMP), 5-day viability assay, two independent experiments): 6.72
